These results are taken from paper PMC7595425 (PLoS ONE, 2020).

Where “and” joins values, the source holds several entries; their conditions need not be identical. Equal entries are not always repeated.

Data set [1] has as its target T1, P-gp (Homo sapiens, UniProt P08183). The data set is described as follows: ATPase assay with P-gp-expressing membrane vesicles (SB-MDR1 […] ATPase Kit). In kind it is biochemical. The procedure:
The SB-MDR1 […] ATPase Kit, including P-gp-expressing membrane vesicles, was purchased from SOLVO Biotechnology (distributed by KAC Co., Ltd., Kyoto, Japan). This assay kit measures the interaction of test drugs with P-gp. ATPase assay was conducted according to the manufacturer’s instructions and a previous report. Inorganic phosphate liberated by ATP hydrolysis was detected by colorimetric reaction. The optical density (OD) was measured at 590 nm with a microplate reader, Sunrise™ Rainbow (TECAN, Kanagawa, Japan).

For data set [2] the following is noted: in combination with sertraline; cited from earlier work.
Data set [3] can be described thus: Bidirectional assay across Caco-2 cell monolayers. The conditions noted are these: human.
Source text: Caco-2 cells (RRID:CVCL_0025), a human colon epithelial cancer cell line frequently used as an in vitro intestinal model, were purchased from the American Type Culture Collection (Rockville, MD, USA). […] The receiver side contained transport medium.
For data set [4], the target named is T1, P-gp. Description: Efflux rate assay using P-gp-overexpressing LLC-GA5-CoL150 cells. In kind it is in vitro ADME. Details: host or cells: LLC-GA5-CoL150 (derivative of LLC-PK1 kidney epithelial cells). The procedure:
Efflux assay with LLC-GA5-CoL150 cells was performed as previously described, with some modifications. […] The cells were incubated for 30 min at 4°C, washed twice with ice-cold D-PBS(-), and further incubated in Opti-MEM® for 10 min at 37°C. The cells were then washed three times with ice-cold D-PBS(-), dried, and lysed by adding 200 μL of 0.1 N NaOH solution. […] The efflux rate was calculated according to the following formula.
Effluxrate(pmol/min/mgprotein)={Initialuptakeofpimozide(pmol/mgprotein)−Residualamountofpimozideafter10minincubation(pmol/mgprotein)}/10(min)
Protein was determined colorimetrically using DCTM Protein Assay (BIO-RAD, Hercules, CA), based on absorbance measurement at 700 nm with a microplate reader, Sunrise Rainbow RC (Tecan, Kanagawa, Japan). An aliquot of cell lysate was mixed with 300 μL of ethyl acetate for 10 min in the cold, then 100 μL of the organic phase was taken and evaporated. The residue was dissolved in 300 μL of mobile phase. All samples were applied to MultiScreen® Solvent Filter Plates 0.45 μm Low-Binding Hydrophilic PTFE (Merck, Ireland) and centrifuged at 3,500 rpm for 20 min at 4°C.
To estimate the kinetic parameters of carrier-mediated transport in the efflux assays, the transport rate (J) was fitted to the following Eq (1), containing saturable and nonsaturable-linear terms, by using the nonlinear least-squares regression analysis program, MULTI, as previously reported. J=Jmax×[S]/(Kt+[S])+kd×[S] (1) Where Jmax is the maximum transport rate for the carrier-mediated transport, [S] is the substrate concentration, Kt is the half-saturation concentration, and kd is the first-order rate constant.

Where [5] appears, read: pimozide 0.01 to 100 μM, mean ± S.D.

T1 sequence (P08183 whole entry): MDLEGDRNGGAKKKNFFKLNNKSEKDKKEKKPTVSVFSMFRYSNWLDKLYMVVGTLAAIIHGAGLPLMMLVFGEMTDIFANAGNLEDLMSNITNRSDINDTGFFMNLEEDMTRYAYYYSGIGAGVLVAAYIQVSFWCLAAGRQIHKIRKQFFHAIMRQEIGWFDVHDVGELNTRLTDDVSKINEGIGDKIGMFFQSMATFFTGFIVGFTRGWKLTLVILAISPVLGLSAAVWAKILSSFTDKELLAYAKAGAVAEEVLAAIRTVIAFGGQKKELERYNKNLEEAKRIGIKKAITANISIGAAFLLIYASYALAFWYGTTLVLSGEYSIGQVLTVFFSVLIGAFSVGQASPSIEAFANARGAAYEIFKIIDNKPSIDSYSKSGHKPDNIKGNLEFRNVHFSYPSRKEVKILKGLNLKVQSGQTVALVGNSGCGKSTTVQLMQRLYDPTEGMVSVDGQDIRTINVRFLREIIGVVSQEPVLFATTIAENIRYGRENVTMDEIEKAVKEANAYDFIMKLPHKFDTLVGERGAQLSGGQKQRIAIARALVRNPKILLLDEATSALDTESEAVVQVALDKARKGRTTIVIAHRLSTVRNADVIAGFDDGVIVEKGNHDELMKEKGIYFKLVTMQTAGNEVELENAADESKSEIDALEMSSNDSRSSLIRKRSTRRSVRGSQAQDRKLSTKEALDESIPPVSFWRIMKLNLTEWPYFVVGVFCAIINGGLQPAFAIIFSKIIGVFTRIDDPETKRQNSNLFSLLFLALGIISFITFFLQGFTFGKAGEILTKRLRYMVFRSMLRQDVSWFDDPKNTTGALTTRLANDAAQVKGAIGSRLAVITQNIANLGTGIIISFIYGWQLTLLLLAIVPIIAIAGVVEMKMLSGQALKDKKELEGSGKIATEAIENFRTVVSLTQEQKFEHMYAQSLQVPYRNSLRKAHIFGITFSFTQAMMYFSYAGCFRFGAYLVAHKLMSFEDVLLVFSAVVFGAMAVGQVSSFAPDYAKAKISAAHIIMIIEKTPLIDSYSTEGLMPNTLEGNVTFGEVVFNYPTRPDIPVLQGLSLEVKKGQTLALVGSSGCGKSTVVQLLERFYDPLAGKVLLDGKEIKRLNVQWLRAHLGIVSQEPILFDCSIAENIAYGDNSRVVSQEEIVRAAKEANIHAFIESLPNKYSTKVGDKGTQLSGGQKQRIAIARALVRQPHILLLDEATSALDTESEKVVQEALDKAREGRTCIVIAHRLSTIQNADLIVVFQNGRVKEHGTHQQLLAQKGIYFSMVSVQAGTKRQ

For `O=c1[nH]c2ccccc2n1C1CCN(CCCC(c2ccc(F)cc2)c2ccc(F)cc2)CC1` [Pimozide], the “P-gp substrate/inhibitor classification from ATPase assay” value on P-gp [1] (ATPase activity increased concentration-dependently, reduced in the high concentration range) was “both a P-gp substrate and an inhibitor”. The “pimozide concentration over which ATPase activity decreased” value at P-gp [1] (concentration range 0.04 to 100 μM, concentration-dependent elevation at lower concentrations) was “about 10 μM”. Also, in data set [2], the “change of blood half-life of pimozide” value is reported as “without any significant change”, the “increase of AUC of pimozide” value is listed as 37% and the “increase of Cmax of pimozide” value was 35%. In data set [3], the Papp A→B – broadly, the apparent permeability from the apical to the basolateral side of a cell layer – at 120 min, 10 μM worked out at 1.64 ± 0.14 ×10⁻⁶ cm/s and the basolateral-to-apical permeability (Papp B→A) (as a rule, the apparent permeability from the basolateral to the apical side of a cell layer) at 120 min, 10 μM was found to be 0.35 ± 0.01 ×10⁻⁶ cm/s. Further, at P-gp [4], the “Jmax/Kt (affinity for the transport carrier(s))” value turned out to be 8.0 μL/min/mg protein. Also, at P-gp [4] (setting [5]), the “Jmax (maximum transport rate for the carrier-mediated transport)” value was found to be 84.9 ± 8.9 pmol/min/mg protein; the “Kt (half-saturation concentration)” value was 10.6 ± 4.7 µM and 10.6 µM.
